Test results: patent publication US20220324862A1, “PYRIDOPYRIMIDINONE COMPOUNDS” (Acerand Therapeutics (USA) Limited, priority 2021, published 2022)

Target: T1, protein-protein interaction between SOS1 and KRAS-G12D (Homo sapiens, UniProt Q07889)
T1 construct: The purified GST-SOS1 catalytic domain (residues 564-1049) was first diluted in assay buffer; made in house; host or cells: E. coli BL21 (DE3) for SOS1; E. coli BL21 carrying a BirA plasmid for KRAS-G12D
T1 sequence (Q07889 564-1049): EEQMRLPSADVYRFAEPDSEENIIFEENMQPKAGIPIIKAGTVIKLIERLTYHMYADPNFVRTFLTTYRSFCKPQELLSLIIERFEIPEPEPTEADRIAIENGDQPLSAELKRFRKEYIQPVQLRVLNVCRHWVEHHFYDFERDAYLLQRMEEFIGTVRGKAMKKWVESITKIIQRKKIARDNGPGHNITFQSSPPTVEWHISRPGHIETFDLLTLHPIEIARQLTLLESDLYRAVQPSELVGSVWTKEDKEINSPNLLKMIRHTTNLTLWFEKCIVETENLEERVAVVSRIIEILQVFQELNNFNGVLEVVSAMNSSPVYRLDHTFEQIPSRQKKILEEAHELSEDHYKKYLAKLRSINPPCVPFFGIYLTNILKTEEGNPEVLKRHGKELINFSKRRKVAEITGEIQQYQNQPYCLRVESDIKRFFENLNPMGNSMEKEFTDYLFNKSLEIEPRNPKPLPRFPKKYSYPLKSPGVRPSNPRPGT
Assay: HTRF Based Protein-Protein Interaction Assay
Format: binding
Conditions: HTRF; GST-SOS1 2.5 nM, KRAS-G12D 100 nM, GDP 10 uM; read-out: IC50 value, inhibition of SOS1/KRAS-G12D protein-protein interaction
Method in brief: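 GST-SOS1 (residues 564-1049, 2.5 nM) preincubated 15 min at 25° C with compound (0.5 nM-10 μM, 3-fold), then biotinylated avi-KRAS-G12D (1-169, 100 nM) with 10 uM GDP added for 60 min. HTRF read after 5 h with anti-GST-Tb cryptate/streptavidin-XL665; buffer HEPES pH 7.5, Brij-35, TCEP, BSA.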

| IC50 [µM] | Structure (SMILES) |
| --- | --- |
| < 0.1 | C#C[C@@H](Nc1nc(C)nc2c1cc(C1(OC)CCN(C(C)=O)CC1)c(=O)n2C)c1cccc(C(F)(F)F)c1C [Compound 55, 6-(1-acetyl-4-methoxypiperidin-4-yl)-2,8-dimethyl-4-{[(1R)-1-[2-methyl-3-(trifluoromethyl)phenyl]prop-2-yn-1-yl]amino}-7H,8H-pyrido[2,3-d]pyrimidin-7-one] |
| < 0.1 | C#C[C@@H](Nc1ncnc2c1cc(C1(OC)CCN(C(C)=O)C1)c(=O)n2C)c1cccc(C(F)F)c1F (stereo partly drawn) [Compound 49, 6-(1-acetyl-3-methoxypyrrolidin-3-yl)-4-{[(1R)-1-[3-(difluoromethyl)-2-fluorophenyl]prop-2-yn-1-yl]amino}-8-methyl-7H,8H-pyrido[2,3-d]pyrimidin-7-one] |
| 0.1 to 0.2 | C#C[C@@H](Nc1ncnc2c1cc(C1(OC)CCN(C(C)=O)CC1)c(=O)n2C)c1cccc(C(F)F)c1F [Compound 48, (R)-6-(1-acetyl-4-methoxypiperidin-4-yl)-4-((1-(3-(difluoromethyl)-2-fluorophenyl)prop-2-yn-1-yl)amino)-8-methylpyrido[2,3-d]pyrimidin-7(8H)-one] |
| < 0.1 | C#C[C@@H](Nc1nc(C)nc2cc(=O)n(C3CCOCC3)cc12)c1cccc(C(F)(F)F)c1C [Compound 4, (R)-2-methyl-4-((1-(2-methyl-3-(trifluoromethyl)phenyl)prop-2-yn-1-yl)amino)-6-(tetrahydro-2H-pyran-4-yl)pyrido[4,3-d]pyrimidin-7(6H)-one] |
| 0.1 to 0.2 | C#C[C@@H](Nc1ncnc2c1cc(C1(NC(C)=O)CCOCC1)c(=O)n2C)c1cccc(C(F)(F)F)c1C [Compound 58, (R)-N-(4-(8-methy-4-((1-(2-methyl-3-(trifluoromethyl)phenyl)prop-2-yn-1-yl}amino)-7-oxo-7,8-dihydropyrido[2,3-d]pyrimidin-6-yl)tetrahydro-2H-pyran-4-yl)acetamide] |
| < 0.1 | C#C[C@@H](Nc1nc(C)nc2c1cc(C1(F)CCN(C(C)=O)CC1)c(=O)n2C)c1cccc(C(F)(F)F)c1C [Compound 56, 6-(1-acetyl-4-fluoropiperidin-4-yl)-2,8-dimethyl-4-{[(1R)-1-[2-methyl-3-(trifluoromethyl)phenyl]prop-2-yn-1-yl]amino}-7H,8H-pyrido[2,3-d]pyrimidin-7-one] |
| < 0.1 | C#C[C@@H](Nc1nc(C)nc2c1cc(C1(O)CCN(C(C)=O)CC1)c(=O)n2C)c1cccc(C(F)(F)F)c1C [Compound 54, 6-(1-acetyl-4-hydroxypiperidin-4-yl)-2,8-dimethyl-4-{[(1R)-1-[2-methyl-3-(trifluoromethyl)phenyl]prop-2-yn-1-yl]amino}-7H,8H-pyrido[2,3-d]pyrimidin-7-one] |
| < 0.1 | C#C[C@@H](Nc1nc(C)nc2cc(=O)n(C3(C(F)F)CC3)cc12)c1cccc(C(F)(F)F)c1C [Compound 9, (R)-6-(1-(difluoromethyl)cyclopropyl)-2-methyl-4-((1-(2-methyl-3-(trifluoromethyl)phenyl)prop-2-yn-1-yl)amino)pyrido[4,3-d]pyrimidin-7(6H)-one] |
| < 0.1 | C#C[C@@H](Nc1ncnc2c1cc(C1(NC(C)=O)CCN(C(C)=O)CC1)c(=O)n2C)c1cccc(C(F)(F)F)c1C [Compound 57, (R)-N-(1-acetyl-4-(8-methy-4-((1-(2-methyl-3-(trifluoromethyl)phenyl)prop-2-yn-1-yl)amino)-7-oxo-7,8-dihydropyrido[2,3-d]pyrimidin-6-yl)piperidin-4-yl)acetamide] |
| < 0.1 | C#C[C@@H](Nc1ncnc2c1cc(C1(O)CCN(C(C)=O)CC1)c(=O)n2C)c1cccc(C(F)F)c1F [Compound 46, 6-(1-acetyl-4-hydroxypiperidin-4-yl)-4-{[(1R)-1-[3-(difluoromethyl)-2-fluorophenyl]prop-2-yn-1-yl]amino}-8-methyl-7H,8H-pyrido[2,3-d]pyrimidin-7-one] |
| 0.1 to 0.2 | C#C[C@@H](Nc1ncnc2c1cc(C1(O)CCN(C(C)=O)C1)c(=O)n2C)c1cccc(C(F)F)c1F (stereo partly drawn) [Compound 43, 6-(1-acetyl-3-hydroxypyrrolidin-3-yl)-4-{[(1R)-1-[3-(difluoromethyl)-2-fluorophenyl]prop-2-yn-1-yl]amino}-8-methyl-7H,8H-pyrido[2,3-d]pyrimidin-7-one] |
